What was measured:
Type in all cases: functional
CCRF-CEM = experiment: Growth inhibition of human CCRF-CEM cells after 48 hrs by sulforhodamine B assay
HL-60(TB) = experiment: Growth inhibition of human HL-60(TB) cells after 48 hrs by sulforhodamine B assay; details: HL-60, 48 h
K562 = experiment: Growth inhibition of human K562 cells after 48 hrs by sulforhodamine B assay; details: K562, 48 h
MOLT-4 = experiment: Growth inhibition of human MOLT4 cells after 48 hrs by sulforhodamine B assay; details: MOLT-4, 48 h
RPMI-8226 = experiment: Growth inhibition of human RPMI8226 cells after 48 hrs by sulforhodamine B assay; details: RPMI-8226, 48 h
SR = experiment: Growth inhibition of human SR cells after 48 hrs by sulforhodamine B assay
A549 = experiment: Growth inhibition of human A549/ATCC cells after 48 hrs by sulforhodamine B assay; details: A549, 48 h
HOP-92 = experiment: Growth inhibition of human HOP92 cells after 48 hrs by sulforhodamine B assay; details: HOP-92, 48 h
NCI-H226 = experiment: Growth inhibition of human NCI-H226 cells after 48 hrs by sulforhodamine B assay; details: NCI-H226, 48 h
NCI-H23 = experiment: Growth inhibition of human NCI-H23 cells after 48 hrs by sulforhodamine B assay; details: NCI-H23, 48 h
NCI-H322M = experiment: Growth inhibition of human NCI-H322M cells after 48 hrs by sulforhodamine B assay
NCI-H460 = experiment: Growth inhibition of human NCI-H460 cells after 48 hrs by sulforhodamine B assay; details: NCI-H460, 48 h
NCI-H522 = experiment: Growth inhibition of human NCI-H522 cells after 48 hrs by sulforhodamine B assay; details: NCI-H522, 48 h
COLO 205 = experiment: Growth inhibition of human COLO205 cells after 48 hrs by sulforhodamine B assay; details: COLO 205, 48 h
HCC 2998 = experiment: Growth inhibition of human HCC2998 cells after 48 hrs by sulforhodamine B assay; details: HCC 2998, 48 h
HCT-116 = experiment: Growth inhibition of human HCT116 cells after 48 hrs by sulforhodamine B assay; details: HCT-116, 48 h
HCT-15 = experiment: Growth inhibition of human HCT15 cells after 48 hrs by sulforhodamine B assay; details: HCT-15, 48 h
HT-29 = experiment: Growth inhibition of human HT-29 cells after 48 hrs by sulforhodamine B assay; details: HT-29, 48 h
KM12 = experiment: Growth inhibition of human KM12 cells after 48 hrs by sulforhodamine B assay; details: KM12, 48 h
SW-620 = experiment: Growth inhibition of human SW620 cells after 48 hrs by sulforhodamine B assay; details: SW-620, 48 h
SF-268 = experiment: Growth inhibition of human SF268 cells after 48 hrs by sulforhodamine B assay; details: SF-268, 48 h
SF-295 = experiment: Growth inhibition of human SF295 cells after 48 hrs by sulforhodamine B assay; details: SF-295, 48 h
SF-539 = experiment: Growth inhibition of human SF539 cells after 48 hrs by sulforhodamine B assay; details: SF-539, 48 h
SNB-19 = experiment: Growth inhibition of human SNB19 cells after 48 hrs by sulforhodamine B assay; details: SNB-19, 48 h
SNB-75 = experiment: Growth inhibition of human SNB75 cells after 48 hrs by sulforhodamine B assay; details: SNB-75, 48 h
U-251 = experiment: Growth inhibition of human U251 cells after 48 hrs by sulforhodamine B assay; details: U-251, 48 h
LOX IMVI = experiment: Growth inhibition of human LOXIMVI cells after 48 hrs by sulforhodamine B assay
Malme-3M = experiment: Growth inhibition of human MALME-3M cells after 48 hrs by sulforhodamine B assay
M14 = experiment: Growth inhibition of human M14 cells after 48 hrs by sulforhodamine B assay; details: M14, 48 h
MDA-MB-435 = experiment: Growth inhibition of human MDA-MB-435 cells after 48 hrs by sulforhodamine B assay; details: MDA-MB-435, 48 h
SK-MEL-2 = experiment: Growth inhibition of human SK-MEL-2 cells after 48 hrs by sulforhodamine B assay; details: SK-MEL-2, 48 h
SK-MEL-28 = experiment: Growth inhibition of human SK-MEL-28 cells after 48 hrs by sulforhodamine B assay; details: SK-MEL-28, 48 h
SK-MEL-5 = experiment: Growth inhibition of human SK-MEL-5 cells after 48 hrs by sulforhodamine B assay; details: SK-MEL-5, 48 h
UACC-257 = experiment: Growth inhibition of human UACC257 cells after 48 hrs by sulforhodamine B assay; details: UACC-257, 48 h
UACC-62 = experiment: Growth inhibition of human UACC62 cells after 48 hrs by sulforhodamine B assay; details: UACC-62, 48 h
OVCAR-3 = experiment: Growth inhibition of human OVCAR3 cells after 48 hrs by sulforhodamine B assay; details: OVCAR-3, 48 h
OVCAR-4 = experiment: Growth inhibition of human OVCAR4 cells after 48 hrs by sulforhodamine B assay; details: OVCAR-4, 48 h
OVCAR-5 = experiment: Growth inhibition of human OVCAR5 cells after 48 hrs by sulforhodamine B assay; details: OVCAR-5, 48 h
OVCAR-8 = experiment: Growth inhibition of human OVCAR8 cells after 48 hrs by sulforhodamine B assay; details: OVCAR-8, 48 h
NCI/ADR-RES = experiment: Growth inhibition of human NCI-ADR-RES cells after 48 hrs by sulforhodamine B assay
SK-OV-3 = experiment: Growth inhibition of human SKOV3 cells after 48 hrs by sulforhodamine B assay; details: SK-OV-3, 48 h
786-0 = experiment: Growth inhibition of human 786-0 cells after 48 hrs by sulforhodamine B assay; details: 786-0, 48 h
A498 = experiment: Growth inhibition of human A498 cells after 48 hrs by sulforhodamine B assay; details: A498, 48 h
ACHN = experiment: Growth inhibition of human ACHN cells after 48 hrs by sulforhodamine B assay
CAKI-1 = experiment: Growth inhibition of human Caki1 cells after 48 hrs by sulforhodamine B assay; details: CAKI-1, 48 h
RXF 393 = experiment: Growth inhibition of human RXF393 cells after 48 hrs by sulforhodamine B assay; details: RXF 393, 48 h
SN12C = experiment: Growth inhibition of human SN12C cells after 48 hrs by sulforhodamine B assay
TK-10 = experiment: Growth inhibition of human TK10 cells after 48 hrs by sulforhodamine B assay; details: TK-10, 48 h
UO-31 = experiment: Growth inhibition of human UO31 cells after 48 hrs by sulforhodamine B assay; details: UO-31, 48 h
PC-3 = experiment: Growth inhibition of human PC3 cells after 48 hrs by sulforhodamine B assay; details: PC-3, 48 h
DU-145 = experiment: Growth inhibition of human DU145 cells after 48 hrs by sulforhodamine B assay; details: DU-145, 48 h
MCF7 = experiment: Growth inhibition of human MCF7 cells after 48 hrs by sulforhodamine B assay; details: MCF7, 48 h
MDA-MB-231 = experiment: Growth inhibition of human MDA-MB-231 cells after 48 hrs by sulforhodamine B assay; details: MDA-MB-231, 48 h
Hs-578T = experiment: Growth inhibition of human Hs 578T cells after 48 hrs by sulforhodamine B assay
BT-549 = experiment: Growth inhibition of human BT549 cells after 48 hrs by sulforhodamine B assay; details: BT-549, 48 h
T47D = experiment: Growth inhibition of human T47D cells after 48 hrs by sulforhodamine B assay
MDA-MB-468 = experiment: Growth inhibition of human MDA-MB-468 cells after 48 hrs by sulforhodamine B assay; details: MDA-MB-468, 48 h
[1] = Growth inhibition of human M9-ENL1 cells after 24 hrs by trypan blue assay; details: M9-ENL1, 24 h
[2] = Induction of apoptosis in human M9-ENL1 cells assessed as cell death after 24 hrs by Annexin V/PI or 7-AAD staining based flow cytometry; details: M9-ENL1, 24 h, read-out: LC50 (the source's name)
[3] = Potency index, ratio of compound effect to PTL effect for cytotoxicity against human M9-ENL1 cells

C=C1C(=O)O[C@H]2[C@H]1CC/C(COC(=O)CCC(=O)N1CCC(C)CC1)=C\CC[C@@]1(C)O[C@@H]21
GI50 (CCRF-CEM): 1400 nM | GI50 (HL-60(TB)): 3160 nM | GI50 (K562): 3060 nM | GI50 (MOLT-4): 3330 nM | GI50 (RPMI-8226): 4740 nM | GI50 (SR): 2720 nM | GI50 (A549): 15.8 µM | GI50 (HOP-92): 2050 nM | GI50 (NCI-H226): 3510 nM | GI50 (NCI-H23): 5.24 µM | GI50 (NCI-H322M): 17.6 µM | GI50 (NCI-H460): 16 µM | GI50 (NCI-H522): 1500 nM | GI50 (COLO 205): 2940 nM | GI50 (HCC 2998): 11.5 µM | GI50 (HCT-116): 1690 nM | GI50 (HCT-15): 1700 nM | GI50 (HT-29): 4280 nM | GI50 (KM12): 12.1 µM | GI50 (SW-620): 2330 nM | GI50 (SF-268): 13.2 µM | GI50 (SF-295): 14.7 µM | GI50 (SF-539): 2350 nM | GI50 (SNB-19): 14 µM | GI50 (SNB-75): 11.2 µM | GI50 (U-251): 16.7 µM | GI50 (LOX IMVI): 2950 nM | GI50 (Malme-3M): 2950 nM | GI50 (M14): 3440 nM | GI50 (MDA-MB-435): 4.84 µM | GI50 (SK-MEL-2): 13.1 µM | GI50 (SK-MEL-28): 3100 nM | GI50 (SK-MEL-5): 7.17 µM | GI50 (UACC-257): 3570 nM | GI50 (UACC-62): 5.15 µM | GI50 (OVCAR-3): 4320 nM | GI50 (OVCAR-4): 2640 nM | GI50 (OVCAR-5): 6.36 µM | GI50 (OVCAR-8): 3.37 µM | GI50 (NCI/ADR-RES): 13.1 µM | GI50 (SK-OV-3): 26.8 µM | GI50 (786-0): 6.64 µM | GI50 (A498): 2770 nM | GI50 (ACHN): 2640 nM | GI50 (CAKI-1): 2.83 µM | GI50 (RXF 393): 1910 nM | GI50 (SN12C): 4.8 µM | GI50 (TK-10): 3900 nM | GI50 (UO-31): 3.56 µM | GI50 (PC-3): 13 µM | GI50 (DU-145): 4.44 µM | GI50 (MCF7): 2220 nM | GI50 (MDA-MB-231): 7.13 µM | GI50 (Hs-578T): 20.4 µM | GI50 (BT-549): 1820 nM | GI50 (T47D): 5.45 µM | GI50 (MDA-MB-468): 1060 nM | GI50 [1]: 3100 nM | CC50 [2]: 4.1 µM | fold change (FC) [3]: 2

C=C1C(=O)O[C@H]2[C@H]1CC/C(COC(=O)CCC(=O)NCCCCCCCCCNC(=O)CCC(=O)OC/C1=C/CC[C@@]3(C)O[C@H]3[C@H]3OC(=O)C(=C)[C@@H]3CC1)=C\CC[C@@]1(C)O[C@@H]21
GI50 (CCRF-CEM): 280 nM | GI50 (HL-60(TB)): 440 nM | GI50 (K562): 450 nM | GI50 (MOLT-4): 640 nM | GI50 (RPMI-8226): 500 nM | GI50 (SR): 330 nM | GI50 (A549): 13.8 µM | GI50 (HOP-92): 1400 nM | GI50 (NCI-H226): 1900 nM | GI50 (NCI-H23): 2.23 µM | GI50 (NCI-H322M): 16.3 µM | GI50 (NCI-H460): 2.18 µM | GI50 (NCI-H522): 420 nM | GI50 (COLO 205): 1220 nM | GI50 (HCC 2998): 2.25 µM | GI50 (HCT-116): 860 nM | GI50 (HCT-15): 2630 nM | GI50 (HT-29): 1330 nM | GI50 (KM12): 4.6 µM | GI50 (SW-620): 540 nM | GI50 (SF-268): 2.92 µM | GI50 (SF-295): 7.68 µM | GI50 (SF-539): 1850 nM | GI50 (SNB-19): 3.38 µM | GI50 (SNB-75): 1.47 µM | GI50 (U-251): 3.01 µM | GI50 (LOX IMVI): 370 nM | GI50 (Malme-3M): 1940 nM | GI50 (M14): 1650 nM | GI50 (MDA-MB-435): 1.63 µM | GI50 (SK-MEL-2): 2.12 µM | GI50 (SK-MEL-28): 1470 nM | GI50 (SK-MEL-5): 1.88 µM | GI50 (UACC-257): 2060 nM | GI50 (UACC-62): 1.69 µM | GI50 (OVCAR-3): 1290 nM | GI50 (OVCAR-4): 1480 nM | GI50 (OVCAR-5): 1.7 µM | GI50 (OVCAR-8): 3.24 µM | GI50 (NCI/ADR-RES): 26.7 µM | GI50 (SK-OV-3): 5.8 µM | GI50 (786-0): 1.49 µM | GI50 (A498): 2720 nM | GI50 (ACHN): 2100 nM | GI50 (CAKI-1): 10.5 µM | GI50 (RXF 393): 1010 nM | GI50 (SN12C): 2.69 µM | GI50 (TK-10): 1780 nM | GI50 (UO-31): 3.9 µM | GI50 (PC-3): 2.53 µM | GI50 (DU-145): 1.75 µM | GI50 (MCF7): 420 nM | GI50 (MDA-MB-231): 1.58 µM | GI50 (Hs-578T): 2.99 µM | GI50 (BT-549): 660 nM | GI50 (T47D): 1.49 µM | GI50 (MDA-MB-468): 980 nM | GI50 [1]: 440 nM | CC50 [2]: 6.5 µM

Source: ChEMBL document CHEMBL4033723, “Succinamide derivatives of melampomagnolide B and their anti-cancer activities” (2017)
